In US20120330012A1, “Novel Tricyclic Compounds” (ABBOTT LABORATORIES, priority 2011, published 2012):

Biological target: T1, Syk (Homo sapiens, UniProt P43405)
T1 construct: Syk catalytic domain (aa356-635, purified in-house at the Abbott Bioresearch Center); His tag (C); made in house; host or cells: SF9 insect cells
Assay: In vitro Syk kinase activity measured by trFRET
Type: biochemical
Conditions: Syk catalytic domain aa356-635, 0.001 mM ATP
Procedure: In Vitro Syk Kinase Activity Measured by Time-Resolved Fluorescence Resonance Energy Transfer (trFRET)
0.3 nM Syk catalytic domain (aa356-635, purified in-house at the Abbott Bioresearch Center) was mixed with 0.1 μM peptide substrate (biotin-TYR1, Sequence: Biotin-(Ahx)-[…]-COOH) at varying concentrations of inhibitor in reaction buffer: 50 mM MOPSO pH 6.5, 10 mM MgCl2, 2 mM MnCl2, 2.5 mM DTT, 0.01% BSA, 0.1 mM Na3VO4 and 0.001 mM ATP. After about 60 min incubation at rt, the reaction was quenched by addition of EDTA (final concentration: 100 mM) and developed by addition of revelation reagents (final approximate concentrations: 30 mM HEPES pH 7.0, 0.06% BSA, 0.006% Tween-20, 0.24 M KF, 90 ng/mL PT66K (europium labeled anti-phosphotyrosine antibody cat #61T66KLB Cisbio, Bedford, Mass.) and 0.6 μg/mL SAXL (Phycolink streptavidin-allophycocyanin acceptor, cat #PJ52S, Prozyme, San Leandro, Calif.). The developed reaction was incubated in the dark either at about 4° C. for about 14 h or for about 60 min at rt, then read via a time-resolved fluorescence detector (Rubystar, BMG) using a 337 nm laser for excitation and emission wavelength of 665 nm. Within the linear range of the assay, the observed signal at 665 nm is directly related to phosphorylated product and used to calculate the IC50 values.

SMILES	IC50 [µM]
c1cc2c(ncn3cnc(C4CCCCC4)c23)[nH]1 [Example #1, 1-Cyclohexyl-7H-imidazo[1,5-c]pyrrolo[3,2-e]pyrimidine]	1 to 10
CCCNC(=O)c1ccc(Nc2nc3[nH]ccc3c3nccn23)cc1 [Example #7, 4-(7H-Imidazo[1,2-c]pyrrolo[3,2-e]pyrimidin-5-ylamino)-N-propylbenzamide]	> 10
c1cc(-c2cc3c(ncn4ccnc34)[nH]2)ccn1 [Example #12, 8-(Pyridin-4-yl)-7H-imidazo[1,2-c]pyrrolo[3,2-e]pyrimidine]	1 to 10
c1cc2c(ncn3nnc(C4CCCCC4)c23)[nH]1 [Example #2, 1-Cyclohexyl-7H-pyrrolo[3,2-e][1,2,3]triazolo[1,5-c]pyrimidine]	> 10

Continued, values first:

IC50 [µM]	SMILES
1 to 10	c1cncc(-c2cn3cnc4[nH]ccc4c3n2)c1 [Example #11, 2-(Pyridin-3-yl)-7H-imidazo[1,2-c]pyrrolo[3,2-e]pyrimidine]
0.1 to 1	CC(C)(O)c1ccc(-c2cnc3c4cc[nH]c4ncn23)cc1 [Example #10, 2-(4-(7H-Imidazo[1,2-c]pyrrolo[3,2-e]pyrimidin-3-yl)phenyl)propan-2-ol]
> 10	CS(=O)(=O)c1ccc(-c2nnc3c4cc[nH]c4ncn23)cc1 [Example #9, 3-(4-(Methylsulfonyl)phenyl)-7H-pyrrolo[3,2-e][1,2,4]triazolo[4,3-c]pyrimidine]
> 10	COc1ccc(-c2nnc3c4cc[nH]c4ncn23)cc1 [Example #8, 3-(4-Methoxyphenyl)-7H-pyrrolo[3,2-e][1,2,4]triazolo[4,3-c]pyrimidine]
> 10	Brc1cnc2c3cc[nH]c3ncn12 [Example #10, Step D, 3-bromo-7H-imidazo[1,2-c]pyrrolo[3,2-e]pyrimidine]
1 to 10	CC(=O)N1CCCC(c2nc(-c3ccc(C(C)C)cc3)n3cnc4[nH]ccc4c23)C1 (stereo not shown) [Example #13, 1-(3-(3-(4-Isopropylphenyl)-7H-imidazo[1,5-c]pyrrolo[3,2-e]pyrimidin-1-yl)piperidin-1-yl)ethanone]

Biological target: T2, Jak3 (Homo sapiens, UniProt P52333)
T2 construct: Jak3 enzyme (aa 811-1103); expressed in SF9 cells as a GST fusion; GST; made in house; host or cells: SF9 insect cells
Assay: In vitro Jak3 kinase activity measured by trFRET
Type: biochemical
Conditions: Jak3 enzyme aa 811-1103, 0.001 mM ATP
Description: In Vitro Jak3 Kinase Activity Measured by Time-Resolved Fluorescence Resonance Energy Transfer (trFRET)

T2 sequence (P52333 811-1103): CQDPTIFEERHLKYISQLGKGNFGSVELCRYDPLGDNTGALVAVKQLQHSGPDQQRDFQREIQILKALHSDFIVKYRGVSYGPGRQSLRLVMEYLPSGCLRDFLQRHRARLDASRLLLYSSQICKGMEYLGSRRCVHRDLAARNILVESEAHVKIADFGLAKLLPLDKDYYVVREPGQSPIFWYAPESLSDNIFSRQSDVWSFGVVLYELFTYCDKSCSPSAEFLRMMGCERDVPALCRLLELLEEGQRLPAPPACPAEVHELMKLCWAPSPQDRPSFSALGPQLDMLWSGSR

IC50 [µM]	SMILES
1 to 10	N#CC1(C(=O)N2CCCC(c3nnn4cnc5[nH]ccc5c34)C2)CC1 (racemic) [Examples #5 and #6, Step E, 1-(3-(7H-Pyrrolo[3,2-e][1,2,3]triazolo[1,5-c]pyrimidin-1-yl)piperidine-1-carbonyl)cyclopropanecarbonitrile]
1 to 10	CC(C)c1nc(C2CCCN(C(=O)OCc3ccccc3)C2)c2c3cc[nH]c3ncn12 (stereo not shown) [Example #3, Benzyl 3-(3-isopropyl-7H-imidazo[1,5-c]pyrrolo[3,2-e]pyrimidin-1-yl)piperidine-1-carboxylate]
1 to 10	N#CC1(C(=O)N2CCC[C@H](c3nnn4cnc5[nH]ccc5c34)C2)CC1 (single isomer, unassigned) [compound 5]
1 to 10	O=C(OCc1ccccc1)N1CCCC(c2ncn3cnc4[nH]ccc4c23)C1 (stereo not shown) [Example #4, Benzyl 3-(7H-imidazo[1,5-c]pyrrolo[3,2-e]pyrimidin-1-yl)piperidine-1-carboxylate]
0.1 to 1	N#CC1(C(=O)N2CCC[C@@H](c3nnn4cnc5[nH]ccc5c34)C2)CC1 (single isomer, unassigned) [compound 6]
1 to 10	c1cc2c(ncn3nnc(C4CCCCC4)c23)[nH]1 [Example #2, 1-Cyclohexyl-7H-pyrrolo[3,2-e][1,2,3]triazolo[1,5-c]pyrimidine]
